These results are taken from ChEMBL document CHEMBL1153975, “Structure-activity relationships of diverse annonaceous acetogenins against human tumor cells” (Bioorg Med Chem Lett, 2009).

Broadly, the IC50 is the concentration needed to halve the response being measured. Read a high IC50 as lower potency.

Type in all cases: functional, cell-based
The nature of experiment [1]: Cytotoxicity against human A-5408 cells after 72 hrs by MTT assay. On the technique in general: Formazan colour is commonly taken as a measure of viable cells.
Experiment [2] relates to HeLa. The experiment is described as follows: Cytotoxicity against human HeLa cells after 72 hrs by MTT assay.
Experiment [3] concerns SGC-7901. In words: Cytotoxicity against human SGC7901 cells after 72 hrs by MTT assay. To be noted: SGC-7901, 72 h.
The nature of experiment [4]: Cytotoxicity against human SMMC-7541 cells after 72 hrs by MTT assay.
Experiment [5] relates to MCF7. The experiment is described as follows: Cytotoxicity against human MCF7 cells after 72 hrs by MTT assay. As to conditions: MCF7, 72 h.

Consider `CCCCCC[C@H](O)CCC[C@H](O)[C@H]1CC[C@H]([C@H]2CC[C@H]([C@H](O)CCCCCCCCCCCCC3=C[C@H](C)OC3=O)O2)O1` [SQUAMOCIN], for which the IC50 in experiment [1] came out at 0.87 nM; in experiment [2], 9.7 nM; in experiment [3], 0.73 nM; in experiment [4], 0.09 nM; in experiment [5], 0.5 nM.

For the compound `CCCCCC[C@@H](O)CCC[C@H](O)[C@@H]1CC[C@@H]([C@H](O)CC[C@@H](O)[C@@H]2CC[C@@H](CCCCCCCCCC3=C[C@@H](C)OC3=O)O2)O1` [Squamostatin-A], the half-inhibitory concentration (IC50) in experiment [1] was 2.6 nM; in experiment [2] it was 33 nM; in experiment [3], 97 nM; in experiment [4], 50 nM; in experiment [5] it was 970 nM.

As for `COc1cccc2c1C(=O)c1c(O)c3c(c(O)c1C2=O)C[C@@](O)(C(=O)CO)C[C@@H]3O[C@H]1C[C@H](N)[C@H](O)[C@H](C)O1` [DOXORUBICIN], the IC50 in experiment [1] came to 26 nM; in experiment [2] it was 16 nM; in experiment [3] it was 13 nM; in experiment [4], 3.7 nM.

On to `CCCCCCCCCC[C@H](O)[C@@H]1CC[C@@H]([C@H](O)CC[C@@H](O)[C@@H]2CC[C@@H](CCCCCCCCCC3=C[C@@H](C)OC3=O)O2)O1` [Squamostatin-D], for which the IC50 in experiment [1] is 1.4 nM; in experiment [2] it was 38 nM; in experiment [3], 180 nM; in experiment [4], 54 nM; in experiment [5], 45 nM.

On to `CCCCCC[C@@H](O)CCC[C@@H](O)[C@H]1CC[C@H]([C@H]2CC[C@H]([C@H](O)CCCCCCCCCCCCC3=C[C@@H](C)OC3=O)O2)O1` [Squamocin-D], for which the half-maximal inhibitory concentration (IC50) in experiment [1] came out at 1.8 nM; in experiment [2], 24 nM; in experiment [3] it was 1.6 nM; in experiment [4], 12 nM; in experiment [5], 2.8 nM.

As to `CCCCCCCCCCCC[C@@H](O)[C@H]1CC[C@H]([C@H](O)CCCCCC(O)CCCCCCC2=C[C@H](C)OC2=O)O1` (some centres undefined), the IC50 in experiment [1] amounted to 320 nM; in experiment [2], 1000 nM; in experiment [3] it was 230 nM; in experiment [4], 8.3 nM; in experiment [5], 37 nM.

For the compound `CCCCCCCCCC[C@@H](O)[C@H]1CC[C@H]([C@H]2CC[C@H]([C@H](O)CCCCCCCCCCCCC3=C[C@@H](C)OC3=O)O2)O1` [DEACETYLUVARICIN], the IC50 stood at 400 nM in experiment [1]; 160 nM in experiment [2]; 43 nM in experiment [3]; 140 nM in experiment [4]; 40 nM in experiment [5].

Take `CCCCCCCCCCC(O)C1CCC(C2CCC(C(O)CCCCCCCC[C@H](O)CC3=C[C@@H](C)OC3=O)O2)O1` (some centres undefined) [ASIMICIN]: the concentration for half-maximal inhibition (IC50) in experiment [1] was found to be 3.6 nM; in experiment [2] it was 27 nM; in experiment [3] it was 4.3 nM; in experiment [4] it was 11 nM; in experiment [5] it was 13 nM.

`CCCCCCCCCC[C@@H](O)[C@@H]1CC[C@@H]([C@H](O)CC[C@@H](O)[C@@H]2CC[C@@H](CCCCCCCCCC3=C[C@@H](C)OC3=O)O2)O1` [Squamostatin-E]: the IC50 in experiment [1] is 130 nM; in experiment [2], 270 nM; in experiment [3] it was 210 nM; in experiment [4], 180 nM; in experiment [5] it was 900 nM.

For `CCCCCC[C@@H](O)CCC[C@@H](O)[C@@H]1CC[C@@H]([C@H](O)CC[C@@H](O)[C@@H]2CC[C@@H](CCCCCCCCCC3=C[C@@H](C)OC3=O)O2)O1` [Squamostatin-B], the IC50 is 43 nM in experiment [1]; 380 nM in experiment [2]; 170 nM in experiment [3]; 170 nM in experiment [4]; 730 nM in experiment [5].

As to `CCCCCCCCCC[C@H](O)[C@H]1CC[C@H]([C@H]2CC[C@H]([C@H](O)CCCCCCCCCCCCC3=C[C@@H](C)OC3=O)O2)O1` [ISODESACETYLUVARICIN], the 50% inhibitory concentration (IC50) amounted to 160 nM in experiment [1]; 13 nM in experiment [2]; 84 nM in experiment [3]; 16 nM in experiment [4]; 21 nM in experiment [5].

Turning to `CCCCCC[C@@H](O)CCC[C@H](O)[C@@H]1CC[C@@H]([C@H](O)CC[C@@H](O)[C@@H]2CC[C@H](CCCCCCCCCC3=C[C@@H](C)OC3=O)O2)O1`, the IC50 came to 16 nM in experiment [1]; 1.3 nM in experiment [2]; 93 nM in experiment [3]; 60 nM in experiment [4]; 3.3 nM in experiment [5].
